The values that follow come from patent US20200147039A1, “COMPOUNDS USEFUL IN INHIBITING HUMAN TREFOIL FACTOR 3” (NATIONAL UNIVERSITY OF SINGAPORE, priority 2017, published 2020).

This assay has as its system MCF-7. As to the kind of experiment: AlamarBlue cell viability assay, MCF7. Format: cell-based, human. Particulars: Homo sapiens, MCF7, MCF-7, AlamarBlue cell viability (Table 8). An excerpt: (A) Inhibitory concentration 50% (IC50) values for compound 43 in the MC cell lines are tabulated, using an AlamarBlue™ cell viability assay as previously described in Pandey V et al., Breast Cancer Res. 2014; 16(5):429. (B) Measured dose-dependent manner effect of compound 43 on the viability of MC cells (left-side, TFF3-high and right, TFF3-low) using AlamarBlue™ viability assay as previously described (ibid). (C) Apoptotic cell death of mammary carcinoma cell lines measured after treatment with 10 μM compound 43 using flow cytometry analysis at 24 hour as described previously in Keerthy H K et al., PloS one. 2014; 9(9):e107118. Annexin V-FITC staining is indicated on the X-axis and PI staining on the Y-axis. […] Acquisition of Annexin V and PI data were represented as percentage (%) in each quadrant. Note: CM, conditioned media; MCF10A and MCF12A, non-transformed immortalized-mammary epithelial cell line. Points are mean of triplicate experiments; bars, ±SD. Statistical significance was assessed by using an unpaired two-tailed Student's t test (P<0.05 was considered as significant) using GraphPad Prism5. Columns are mean of triplicate experiments; bars, ±SD. **P<0.001, *P<0.05.
The human immortalized mammary epithelial cell lines, MCF10A, and MCF12A; and immortalized hepatocellular epithelial cell line, LO2 were obtained from the American Type Culture Collection (ATCC, Rockville, Md.) and were cultured as per ATCC propagation instructions. MC cell lines, MCF7, T47D, BT474, BT20, MDA-MB-361, MDA-MB-436, MDA-MB-468, and MDA-MB-231; endometrial carcinoma cell lines, Ishikawa, ECC1, RL95-2 and AN3; hepatocellular carcinoma cell lines, Hep3B, H2P, and H2M; colon carcinoma cell lines, DLD-1, and Caco-2; and prostate carcinoma cell lines, PC3, LNCaP, and DU145 were obtained from the American Type Culture Collection (ATCC, Rockville, Md.). Pancreatic carcinoma cell lines, AsPC-1 and BxPC-3; Lung carcinoma cell lines, HCC-827, NCI-H1975, HCC-4006, PC-14, and NCI-H1299; and Thyroid carcinoma cell lines HTH83, CAL62, T238, and OGK-M were obtained from Prof. H. Phillip Koeffler's laboratory at The Cancer Science Institute of Singapore, National University of Singapore (NUS). Gastric carcinoma cell lines, AGS, MKN-28, MKN-45, and A2-528 were obtained from Prof. Yoshiaki Ito's laboratory at The Cancer Science Institute of Singapore, NUS. All cell lines were cultured as per ATCC propagation instructions.
The above synthesised compounds were initially evaluated against a range of carcinoma cells using an AlamarBlue™ cell viability assay (using the protocol discussed above). The tested compounds were generally efficacious at reducing the viability of various carcinoma cells compared to vehicle (DMSO) treated cells. Table 8 provides selected IC50 data for certain of the compounds synthesised herein against MCF-7.
In table 9 IC50 values of compound 43 compound library in several cancer cell lines are tabulated, using an AlamarBlue® cell viability assay as previously described in Pandey V et al., Breast Cancer Res. 2014; 16(5):429. Statistical analysis was assessed by using GraphPad Prism5. Note: NV, no value.
Background: Alamar Blue is a resazurin reagent that responds to reducing activity.

Molecules are shown by their SMILES.

The term IC50 denotes the point on the concentration scale where inhibition reaches its midpoint. Consider `N#CC1=C(N)Oc2c(c(=O)oc3ccc(F)cc23)C1c1ccc(-c2cncnc2)cc1F` (stereo not drawn) [Compound 168], for which the IC50 was 251 µM.

Turning to `COc1ccc(C2C(C#N)=C(N)Oc3c2c(=O)oc2ccccc32)cc1-c1ccc(Cl)c(C(F)(F)F)c1` (stereo not drawn) [Compound 73], the IC50 was found to be 14.8 µM.

In turn, `N#CC1=C(N)Oc2c(c(=O)oc3ccc(F)cc23)C1c1ccc(-c2cccc3ccccc23)cc1` (stereo not drawn) [Compound 156] gave an IC50 of 24.8 µM.

Compound `COc1ccc2c3c(c(=O)oc2c1)C(c1ccc(-c2ccc(Cl)cc2)cc1)C(C#N)=C(N)O3` (stereo not drawn) [Compound 154] returned an IC50 of 5.74 µM.

As to `N#CC1=C(N)Oc2c(c(=O)oc3ccccc23)C1c1ccc(-c2ccc(C(F)(F)F)cc2)cc1` (stereo not drawn) [Compound 123], half-maximal inhibition (IC50) required 2.54 µM. Compared with the last compound, the IC50 is about 2.3-fold lower.

For the compound `N#CC1=C(N)Oc2c(c(=O)oc3ccccc23)C1c1ccc(-c2ccc(Cl)cc2)cc1F` (stereo not drawn) [Compound 137], it took 3.95 µM to reach half-maximal inhibition (IC50).

Compound `COc1ccc(C2C(C#N)=C(NS(=O)(=O)c3ccccc3)Oc3c2c(=O)oc2ccccc32)cc1-c1cnc(F)c(C)c1` (stereo not drawn) [Compound 110] displayed a concentration for half-maximal inhibition (IC50) of 67.4 µM.

Compound `COc1ccc(C2C(C#N)=C(NC(=O)c3cc(Cl)ccc3Cl)Oc3c2c(=O)oc2ccccc32)cc1-c1cnc(F)c(C)c1` (stereo not drawn) [Compound 105] yielded an IC50 of 23.7 µM.

On to `Cc1c(-c2ccc(C3C(C#N)=C(N)Oc4c3c(=O)oc3ccccc43)c(F)c2)ccnc1F` (stereo not drawn) [Compound 130], for which the IC50 was 7.93 µM.

Take `COc1cccc(-c2ccc(C3C(C#N)=C(N)Oc4c3c(=O)oc3ccccc43)cc2)c1` (stereo not drawn) [Compound 13]: the IC50 was found to be 17.8 µM. This IC50 lies about 2.2-fold higher than the previous one.

The compound `Cc1cc(-c2ccc(C3C(c4nnn[nH]4)=C(N)Oc4c3c(=O)oc3ccccc43)cc2)cnc1F` (stereo not drawn) [Compound 113] returned an IC50 of 33.1 µM.

As for `COc1ccc2c3c(c(=O)oc2c1)C(c1ccc(-c2cnc(Cl)c(C)c2)cc1)C(C#N)=C(N)O3` (stereo not drawn) [Compound 148], the IC50 came out at 7.38 µM. Compared with the last compound, the IC50 is about 4.5-fold lower.

The compound `N#CC1=C(N)Oc2c(c(=O)oc3ccccc23)C1c1ccc(-c2cn[nH]c2)cc1F` (stereo not drawn) [Compound 142] returned a concentration for half-maximal inhibition (IC50) of 15.5 µM.

As for `Cc1ccc(-c2ccc(C3C(C#N)=C(N)Oc4c3c(=O)oc3ccccc43)cc2)cn1` (stereo not drawn) [Compound 124], the IC50 stood at 43.8 µM.

`Cc1cc(-c2ccc(C3C(C#N)=C(NS(=O)(=O)c4ccc([N+](=O)[O-])cc4)Oc4c3c(=O)oc3ccccc43)cc2)cnc1F` (stereo not drawn) [Compound 109] gave an IC50 of 34.9 µM.

As to `Cc1c(-c2ccc(C3C(C#N)=C(N)Oc4c3c(=O)oc3ccc(F)cc43)cc2)ccnc1F` (stereo not drawn) [Compound 149], the IC50 is 43.3 µM.

`Cc1ccc(-c2ccc(C3C(C#N)=C(N)Oc4c3c(=O)oc3ccccc43)c(F)c2)cn1` (stereo not drawn) [Compound 135] had an IC50 of 3.26 µM.

`COc1cccc(-c2ccc(C3C(C#N)=C(N)Oc4c3c(=O)oc3ccc(F)cc43)cc2)c1` (stereo not drawn) [Compound 164] registered an IC50 of 27.3 µM. This IC50 is about 8.4-fold higher than that of the compound before.

As to `COc1ccc(C2C(C#N)=C(N)Oc3c2c(=O)oc2ccccc32)cc1-c1ccccc1` (stereo not drawn) [Compound 49], the IC50 was 28.2 µM.

For `N#CC1=C(N)Oc2c(c(=O)oc3ccccc23)C1c1ccc(-c2ccc(C(F)(F)F)cc2)cc1F` (stereo not drawn) [Compound 134], half-maximal inhibition (IC50) required 1.84 µM.

Compound `COc1ccc(C2C(C#N)=C(N)Oc3c2c(=O)oc2ccccc32)cc1-c1cccnc1` (stereo not drawn) [Compound 79] had an IC50 of 9.15 µM.
